Data on 13 molecules can be found in ChEMBL document CHEMBL3797155, “The 5-aromatic hydantoin-3-acetate derivatives as inhibitors of the tumour multidrug resistance efflux pump P-glycoprotein (ABCB1): Synthesis, crystallographic and biological studies” (Bioorg Med Chem, 2016).

Holding throughout (assay type): cell-based
Data set [1] can be described thus: Cytotoxicity against multidrug resistant mouse L5178 cells after 24 hrs by MTT assay. The following applies: l5178, 24 h. (In general: Formazan colour is commonly taken as a measure of viable cells.)
For data set [2], the target named is T1, ATP-dependent translocase ABCB1 (Homo sapiens, UniProt P08183). The experiment in a line: Inhibition of human MDR1 expressed in mouse L5178 cells assessed as rhodamine-123 accumulation measured as fluorescence activity ratio at 2 uM after 20 mins by flow cytometry relative to control. The conditions noted are these: l5178, 20 min. For orientation: Flow cytometry measures light scatter and fluorescence of single cells or particles in a stream.

Data set [3] can be described thus: Cytotoxicity against sensitive mouse L5178 cells after 24 hrs by MTT assay. The conditions noted are these: l5178, 24 h.
The target in data set [4] is T1, ATP-dependent translocase ABCB1. Nature of the data set: Inhibition of human MDR1 expressed in mouse L5178 cells assessed as rhodamine-123 accumulation measured as fluorescence activity ratio at 20 uM after 20 mins by flow cytometry relative to control. The following applies: l5178, 20 min.

T1 sequence (P08183 whole entry): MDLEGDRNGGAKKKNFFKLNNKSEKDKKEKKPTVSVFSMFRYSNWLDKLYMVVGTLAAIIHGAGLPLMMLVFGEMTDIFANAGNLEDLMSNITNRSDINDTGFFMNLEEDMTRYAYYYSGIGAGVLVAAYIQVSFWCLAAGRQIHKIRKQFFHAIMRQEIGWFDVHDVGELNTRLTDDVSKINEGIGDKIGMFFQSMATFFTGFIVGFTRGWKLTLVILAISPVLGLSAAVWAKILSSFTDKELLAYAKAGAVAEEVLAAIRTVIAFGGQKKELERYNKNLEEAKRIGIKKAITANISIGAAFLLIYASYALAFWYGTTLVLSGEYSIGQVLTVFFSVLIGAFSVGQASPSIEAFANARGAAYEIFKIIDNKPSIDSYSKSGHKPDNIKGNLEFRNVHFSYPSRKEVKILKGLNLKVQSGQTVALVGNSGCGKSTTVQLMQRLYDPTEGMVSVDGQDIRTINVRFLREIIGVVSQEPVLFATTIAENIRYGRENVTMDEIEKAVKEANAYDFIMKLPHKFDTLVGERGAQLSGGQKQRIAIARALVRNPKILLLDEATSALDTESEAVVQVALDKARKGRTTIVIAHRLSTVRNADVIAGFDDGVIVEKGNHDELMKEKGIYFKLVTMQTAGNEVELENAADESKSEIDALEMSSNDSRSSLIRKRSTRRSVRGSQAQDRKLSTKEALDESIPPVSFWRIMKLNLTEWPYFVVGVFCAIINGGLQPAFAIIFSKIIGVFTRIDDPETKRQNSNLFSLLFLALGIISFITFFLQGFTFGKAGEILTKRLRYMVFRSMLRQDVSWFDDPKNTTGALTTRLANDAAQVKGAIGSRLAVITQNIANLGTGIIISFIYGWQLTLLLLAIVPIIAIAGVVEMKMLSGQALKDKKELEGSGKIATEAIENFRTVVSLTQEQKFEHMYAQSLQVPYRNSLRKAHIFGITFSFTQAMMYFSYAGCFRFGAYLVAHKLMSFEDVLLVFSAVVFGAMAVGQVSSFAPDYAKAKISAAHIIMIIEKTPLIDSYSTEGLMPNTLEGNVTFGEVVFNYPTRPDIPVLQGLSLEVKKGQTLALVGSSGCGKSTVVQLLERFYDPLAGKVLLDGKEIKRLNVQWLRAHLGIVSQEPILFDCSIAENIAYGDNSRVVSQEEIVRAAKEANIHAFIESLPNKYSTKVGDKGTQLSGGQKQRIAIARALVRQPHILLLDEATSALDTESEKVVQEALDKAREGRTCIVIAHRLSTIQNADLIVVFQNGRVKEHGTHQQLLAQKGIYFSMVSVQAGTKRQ

As for `COC(=O)CN1C(=O)N(CC(O)CN2CCN(c3ccccc3)CC2)C(c2ccccc2)(c2ccccc2)C1=O` (centres undefined), the Activity came to 67 µM in data set [1] and 33 µM in data set [3]. Besides, the Ratio in data set [2] worked out at 72.64; in data set [4] it was 90.43.

As for `COc1ccccc1N1CCN(CC(O)CN2C(=O)N(CC(=O)O)C(=O)C2(c2ccccc2)c2ccccc2)CC1` (centres undefined), the Activity in data set [1] and in data set [3] was greater than 100 µM in each case. For the same molecule, the Ratio in data set [2] was determined as 0.84; in data set [4], 0.86.

As to `COC(=O)CN1C(=O)N(CCCN2CCN(c3ccccc3)CC2)C(c2ccccc2)(c2ccccc2)C1=O`, the figures for the Activity in data set [1] and in data set [3] were greater than 100 µM and 40 µM, respectively. Besides, the Ratio in data set [2] is given as 89.34; in data set [4] it was 116.27.

As to `COC(=O)CN1C(=O)N(CCCCN2CCN(c3ccccc3)CC2)C(c2ccccc2)(c2ccccc2)C1=O`, the Activity in data set [1] turned out to be 26 µM; in data set [3], 13 µM. The Ratio in data set [2] amounted to 77.15; in data set [4] it was 99.82.

On to `COc1ccccc1N1CCN(CCCCN2C(=O)N(CC(=O)O)C(=O)C2(c2ccccc2)c2ccccc2)CC1`, for which the Activity in data set [1] and in data set [3] was greater than 100 µM throughout. Moreover, the Ratio in data set [2] turned out to be 1; in data set [4], 2.04.

Regarding `COC(=O)CN1C(=O)N(CCCCN2CCN(c3ccccc3F)CC2)C2(C1=O)c1ccccc1-c1ccccc12`, the Activity turned out to be 84 µM in data set [1] and 58 µM in data set [3]. For the same molecule, the Ratio in data set [2] is recorded as 35.38; in data set [4], 72.04.

For `O=C(O)CN1C(=O)N(CCCCN2CCN(C(=O)c3ccco3)CC2)C2(C1=O)c1ccccc1-c1ccccc12`, the Activity in data set [1] and in data set [3] was greater than 100 µM in each case. Besides, the Ratio in data set [2] was 0.68; in data set [4] it was 0.69.

For the molecule `COC(=O)CN1C(=O)N(CCCCN2CCN(c3ccccc3)CC2)C2(C1=O)c1ccccc1-c1ccccc12`, the values for the Activity in data set [1] and in data set [3] were greater than 100 µM and 53 µM, respectively. Moreover, the Ratio in data set [2] worked out at 21.61; in data set [4] it was 70.19.

As for `COC(=O)CN1C(=O)N(CCCCN2CCN(c3cccc(Cl)c3Cl)CC2)C(c2ccccc2)(c2ccccc2)C1=O`, the Activity in data set [1] was 40 µM; in data set [3], 18 µM. Further, the Ratio is 132.85 in data set [2] and 98.11 in data set [4].

For the molecule `COC(=O)CN1C(=O)N(CCCCN2CCN(C(=O)c3ccco3)CC2)C2(C1=O)c1ccccc1-c1ccccc12`, the results for the Activity in data set [1] and in data set [3] were 63 µM and 59 µM, respectively. Further, the figures for the Ratio in data set [2] and in data set [4] were 1.86 and 24.89, respectively.

Consider `COC(=O)CN1C(=O)N(CCCCN2CCN(c3ccc(F)cc3)CC2)C2(C1=O)c1ccccc1-c1ccccc12`, for which the Activity was 56 µM in data set [1] and 40 µM in data set [3]. The Ratio in data set [2] was 19.4; in data set [4] it was 71.11.

For `COC(=O)CN1C(=O)N(CCCCN2CCN(c3ccccc3F)CC2)C(c2ccccc2)(c2ccccc2)C1=O`, the Activity in data set [1] and in data set [3] was greater than 100 µM throughout. In addition, the values for the Ratio in data set [2] and in data set [4] were 102.74 and 99.09, respectively.

Regarding `COc1ccc(CCN(C)CCCC(C#N)(c2ccc(OC)c(OC)c2)C(C)C)cc1OC` (centres undefined) [VERAPAMIL], the Ratio in data set [4] was 17.59.
